In patent US12391672B2, “Solid forms comprising (S)-4-(4-(4-(((2-(2,6-dioxopiperidin-3-yl)-1-oxoisoindolin-4-yl)oxy)methyl)benzyl)piperazin-1-yl)-3-fluorobenzonitrile and salts thereof, and compositions comprising and methods of using the same” (Celgene Corporation, priority 2019, dated 2025):
In brackets after ≈: the same amount, converted by molar mass. Several values for one entry are separate records, joined by “and”; a condition that tells them apart may be missing. Equal values may be shown once.

What was measured:
[1] = Solubility of polymorphic forms in physiologically relevant media and final pH; format: physicochemical
Excerpt: Solubility data of the several polymorphic forms of Compound 1 in physiologically relevant media and the final pH of these solutions are summarized in the following tables.

[2] = Dynamic vapor sorption / hygroscopicity; format: physicochemical; settings: for hygroscopicity: DVS, class by mass gain at 85% r.h.; for DVS mass increase: relative humidity from about 5% to about 95%
Procedure: Projekt Messtechnik (now ProUmid) SPS11-100n. The sample was placed on an aluminum holder on top of a microbalance and allowed to equilibrate at 50% r.h. before starting one of the following pre-defined humidity programs (1 cycle): • hold 2 h at 50% r.h., • decrease humidity −5% r.h. h^−1 for 10 h (i.e., from 50% r.h. to 0% r.h.), • hold 5 h at […]., • increase humidity +5% r.h. h^−1 for 19 h (i.e., from 0% r.h. to 95% r.h.), • hold 5 h at 95% r.h., • decrease humidity −5% r.h. h^−1 for 9 h (i.e., from 95% r.h. to 50% r.h.), • hold 2 h at 50% r.h. or • hold 2 h at 50% r.h., • increase humidity +5% r.h. h^−1 for 9 h (i.e., from 50% r.h. to 95% r.h.), • hold 5 h at 95% r.h., • decrease humidity −5% r.h. h^−1 for 19 h (i.e., from 95% r.h. to 0% r.h.), • hold 5 h at 0% r.h., • increase humidity +5% r.h. h^−1 for 10 h (i.e., from 0% r.h. to 50% r.h.), • hold 2 h at 50% r.h.
The hygroscopicity was classified based on the mass gain at 85% r.h. relative to the initial mass as follows: deliquescent (sufficient water adsorbed to form a liquid), very hygroscopic (mass increase of […]), hygroscopic (mass increase of <15% but ≥2%), slightly hygroscopic (mass increase of <2% but ≥0.2%), or non-hygroscopic (mass increase of <0.2%).

[3] = Solid state stability under accelerated storage conditions; format: physicochemical; settings: for Chiral purity after storage: initial value 97.96 area %; for area % chemical purity after storage: initially 98.4%
Procedure: Form A was not isolated directly as a wet cake but formed only upon drying of Form E in polymorphism studies. […] Small quantities of Form A were generated by dissolving a crude Compound 1 in MEK at high temperature, followed by fast cooling to room temperature, filtration and drying. DSC and TGA data were obtained for samples of Form A and following storage for 1 week at 60° C. and 60° C./75% RH. […] TGA analysis confirmed that this broad endotherm was most likely due to moisture uptake under the accelerated storage conditions. Most of the weight loss of 0.82% in this sample occurred in a single step at less than 75° C. By contrast, weigh loss was a two-step process at the initial time point. […] The residual solvent initially present in the sample was lost upon storage of the sample at 60° C. (0.13% weight loss between 25 to 150° C.).
Form B could be obtained from a process involving methyl acetate. […] HPLC traces were taken of the samples of Form B and following storage for 2 week at 60° C. and 60° C./75% RH. […] Several small degradation products were seen to grow especially in the sample stored at 60° C. Chiral instability was also observed in the sample stored at 60° C./75% RH.
Physical stability: Visually, all samples of Form K were white colored powder with no apparent change in color in the samples stored under accelerated conditions (40° C., 40° C./75% RH, 60° C., 60° C./75% RH and sample stored in light chamber in clear vials exposed to light and covered in aluminum foil) for 14 d relative to the sample stored refrigerated and under ambient conditions.
Solid state chemical stability: HPLC analysis were performed on Form K samples stored under the accelerated stability conditions. […] Based on the HPLC analysis data, there is a measurable but small change in the chemical stability of Form K under the accelerated conditions of temperature, humidity and exposure to light over the 14 d period.
Solid state chiral stability: Chiral stability of Form K samples stored under accelerated stability conditions was tested. There was ˜2.9% of the R-enantiomer (97.1 area % of the active S-isomer) in the initial sample. […]
The chiral purity (area % of S-isomer) remained […] under the accelerated stability conditions.

[4] = Mechanical stressing (grinding, compression); format: physicochemical; settings: ground with a mortar and pestle for 2 min
Procedure: Mechanical stressing experiment: the following table describes three experiments involving mechanical stressing of Form A and/or Form B of free base Compound 1 by grinding with a mortar and pestle.
Shear Sensitivity: Form K was compressed under 2000 psi for 1 minute and analyzed by XRPD.

[5] = Competitive slurry and slurry stability experiments; format: physicochemical; settings: aqueous slurry at room temperature, within 24 hr
Procedure: Form B was obtained at room temperature while form C was obtained at 45° C. in acetone alone.
The HBr salt was largely insoluble in various buffers when 1 mg/mL slurries were prepared and the mother liquor concentration determined (by HPLC): <0.05 mg/mL in all buffers tested.

[6] = Thermal treatment / racemization on heating; format: physicochemical
Procedure: Thermal treatment of solid forms: the following table summarizes two experiments carried out using solvent-free thermal treatment of forms of Compound 1. The goal of these experiments was to determine whether the endotherm at 225° C. observed in many DSC experiments corresponded to the melting of the racemate of Compound 1 or whether it was a polymorphic form of Compound 1. Two experiments involved generation of different solid forms of Compound 1, the amorphous form and Form E. The resulting products were subsequently heated to temperatures where exothermic events had been observed in DSC thermograms. Both experiments confirmed that the racemate was generated by heating.
Racemization of Compound 1 during the DSC analysis was confirmed by heating the samples to various temperatures and analyzing these samples by a chiral HPLC method as well as by comparison of the melting point with a pure sample of the racemate of Compound 1. Upon heating the sample to 160° C., the chiral purity was essentially unchanged (96.1 area % at 160° C. vs. 97.1% initial). This supports the interpretation of the sharp endotherm seen in the DSC thermogram at about 152.6° C. as the melt of the enantiomer. Between 160-218° C. a gradual conversion of the enantiomer to the racemate occurs along with the recrystallization of the racemate. This explains the unsteady baseline over this temperature range and the small broad endotherm observed at about 197.1° C. […] This melting point matches the peak melting point (about 225.6° C.) of the pure racemate of Compound 1.

[7] = system: non-selective α1 adrenergic receptor; test: α1 adrenergic receptor binding at 10 μM ([3H]prazosin); settings: 0.25 nM [3H]prazosin, rat cerebral cortex membranes
Procedure: (§1) α1 Adrenergic and Dopamine D2 Receptors. Methods: Binding and functional assays for α1 adrenergic and dopamine D2 receptors were performed by Eurofins Cerep according to their methods.
α1 Adrenergic Receptor. Binding at 10 μM. The binding assay evaluated the affinity of test article for the non-selective α1 adrenergic receptor in rat cerebral cortex. Membrane homogenates of cerebral cortex were incubated in duplicate for 60 minutes at room temperature with 0.25 nM [^3H]prazosin in the absence or presence of test articles at 10 μM. After the incubation period, samples were filtered through glass fiber filters, the filters dried and then counted for radioactivity using a scintillation counter. Results are expressed as mean percent inhibition of control radioligand binding.

[8] = target: T1, dopamine D2S receptor (Homo sapiens, UniProt P14416); test: Dopamine D2S receptor binding at 10 μM; settings: transfected HEK-293 cell membranes, read-out: Dopamine D2S % Inh. (@10 μM)
T1 construct: host or cells: HEK-293
Procedure: as §1
Dopamine D2 Receptor. Binding at 10 μM. The binding assay evaluated the affinity of test articles for the dopamine D2 receptor in transfected human embryonic kidney (HEK)-293 cells. For determining the binding in the D2S receptor assay, test article was incubated with 0.3 nM [^3H] methylspiperone or 1 nM [^3H] 7-hydroxy-2-N,N-dipropylaminotetralin (7-OH-DPAT). [^3H] Methylspiperone at 0.3 nM also was used as control ligand in the D2L binding assay. Cell membrane homogenates were incubated in duplicate at room temperature for 60 minutes with ligand in the absence or presence of test articles at 10 μM. After the incubation period, samples were filtered through glass fiber filters, the filters dried and then counted for radioactivity using a scintillation counter. Results are expressed as mean percent inhibition of control radioligand binding.

T1 sequence (P14416 1-414 isoform P14416-2): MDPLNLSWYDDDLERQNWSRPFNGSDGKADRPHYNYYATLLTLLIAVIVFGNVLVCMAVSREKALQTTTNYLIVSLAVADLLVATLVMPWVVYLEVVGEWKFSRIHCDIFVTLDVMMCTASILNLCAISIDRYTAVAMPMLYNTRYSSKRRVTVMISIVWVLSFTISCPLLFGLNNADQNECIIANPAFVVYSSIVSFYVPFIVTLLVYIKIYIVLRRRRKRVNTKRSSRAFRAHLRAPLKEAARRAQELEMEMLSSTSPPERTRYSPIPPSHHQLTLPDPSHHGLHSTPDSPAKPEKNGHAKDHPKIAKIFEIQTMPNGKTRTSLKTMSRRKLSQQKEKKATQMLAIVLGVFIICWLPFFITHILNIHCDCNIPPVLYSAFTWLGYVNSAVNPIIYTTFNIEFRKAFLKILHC

## N#Cc1ccc(N2CCN(Cc3ccc(COc4cccc5c4CN([C@H]4CCC(=O)NC4=O)C5=O)cc3)CC2)c(F)c1 [Form A of a free base of Compound 1]
[1]; FeSSiF, listed as Form A
  Solubility: 86 µg/mL (≈ 152 µM)
[1]; SGF with pepsin, listed as Form A
  Solubility: 429 µg/mL (≈ 756 µM)
[1]; pH 1 buffer HC1/NaC1, listed as Form A
  Solubility: 88 µg/mL (≈ 155 µM)
[1]; pH 3 buffer (phosphate), listed as Form A
  Solubility: 280 µg/mL (≈ 493 µM)
[1]; pH 4 buffer (acetate), listed as Form A
  Solubility: 159 µg/mL (≈ 280 µM)
[1]; pH 5 buffer (acetate), listed as Form A
  Solubility: 8 µg/mL (≈ 14.1 µM)
[1]; solubility sample in FaSSIF, listed as Form A
  Final pH: 6.44
[1]; solubility sample in FeSSiF, listed as Form A
  Final pH: 5.05
[1]; solubility sample in SGF with pepsin, listed as Form A
  Final pH: 1.34
[1]; solubility sample in Water, listed as Form A
  Final pH: 6.77
[1]; solubility sample in pH 1 buffer HC1/NaC1, listed as Form A
  Final pH: 1.14
[1]; solubility sample in pH 3 buffer (phosphate), listed as Form A
  Final pH: 3.70
[1]; solubility sample in pH 4 buffer (acetate), listed as Form A
  Final pH: 4.11
[1]; solubility sample in pH 5 buffer (acetate), listed as Form A
  Final pH: 5.03
[2]; listed as Form A
  hygroscopicity: slightly hygroscopic (slightly hygroscopic (mass increase of <2% but ≥0.2%))
  DVS mass increase: about 2.4%
[3]; 1 week at 60° C.
  DSC trace after storage: quite similar to the initial condition
[3]; 1 week at 60° C./75% RH
  physical form after storage (DSC, TGA): changes in physical form were observed
[4]; listed as Form A
  PXRD result after mechanical treatment: no change in polymorphic form;

## N#Cc1ccc(N2CCN(Cc3ccc(COc4cccc5c4CN([C@H]4CCC(=O)NC4=O)C5=O)cc3)CC2)c(F)c1 [Form B of a free base of Compound 1]
[1]; FeSSiF, listed as Form B
  Solubility: 77 µg/mL (≈ 136 µM)
[1]; SGF with pepsin, listed as Form B
  Solubility: 406 µg/mL (≈ 715 µM)
[1]; pH 1 buffer HC1/NaC1, listed as Form B
  Solubility: 85 µg/mL (≈ 150 µM)
[1]; pH 3 buffer (phosphate), listed as Form B
  Solubility: 125 µg/mL (≈ 220 µM)
[1]; pH 4 buffer (acetate), listed as Form B
  Solubility: 115 µg/mL (≈ 203 µM)
[1]; pH 5 buffer (acetate), listed as Form B
  Solubility: 7 µg/mL (≈ 12.3 µM)
[1]; solubility sample in FaSSIF, listed as Form B
  Final pH: 6.43
[1]; solubility sample in FeSSiF, listed as Form B
  Final pH: 5.03
[1]; solubility sample in SGF with pepsin, listed as Form B
  Final pH: 1.29
[1]; solubility sample in Water, listed as Form B
  Final pH: 6.46
[1]; solubility sample in pH 1 buffer HC1/NaC1, listed as Form B
  Final pH: 1.09
[1]; solubility sample in pH 3 buffer (phosphate), listed as Form B
  Final pH: 4.05
[1]; solubility sample in pH 4 buffer (acetate), listed as Form B
  Final pH: 4.11
[1]; solubility sample in pH 5 buffer (acetate), listed as Form B
  Final pH: 5.05
[2]; listed as Form B
  hygroscopicity: slightly hygroscopic (slightly hygroscopic (mass increase of <2% but ≥0.2%))
  DVS mass increase: about 3.1%
[5]
  competitive slurry with Form C: rapidly converted to Form C
[3]; 2 week at 60° C./75% RH
  Chiral purity after storage: 96.54 area %
  area % chemical purity after storage: 97.92%
[3]; 2 week at 60° C.
  Chiral purity after storage: remained unchanged
  area % chemical purity after storage: 97.71%
[3]; stored at 60° C., initially white to light brown
  colour after storage: Color change was observed
[4]; listed as Form B
  PXRD result after mechanical treatment: no change in polymorphic form

## N#Cc1ccc(N2CCN(Cc3ccc(COc4cccc5c4CN([C@H]4CCC(=O)NC4=O)C5=O)cc3)CC2)c(F)c1 [Compound 1, (S)-4-(4-(4-(((2-(2,6-dioxopiperidin-3-yl)-1-oxoisoindolin-4-yl)oxy)methyl)benzyl)piperazin-1-yl)-3-fluorobenzonitrile]
[6]; DSC heating, chiral HPLC, gradual between 160-218° C.
  racemization on heating: almost complete by 218 °C
[6]; heated to 160° C., 97.1% initial
  chiral purity upon heating: 96.1 area %
[7]
  Adrenergic α1 % Inh. (@10 μM): 67% and 62%
[8]
  inhibition at 10 µM: 55%

## N#Cc1ccc(N2CCN(Cc3ccc(COc4cccc5c4CN([C@H]4CCC(=O)NC4=O)C5=O)cc3)CC2)c(F)c1 [Form E of a free base of Compound 1]
[2]; after the DVS humidity cycle, listed as Form E
  solid form after DVS cycle: primarily amorphous material
[6]; N2 flow, 200° C. held for several minutes, cooled quickly
  PXRD result after thermal treatment: racemate

## O=C1CCC(N2Cc3c(OCc4ccc(CN5CCN(c6ccc(F)cc6F)CC5)cc4)cccc3C2=O)C(=O)N1 (racemic) [Compound A, 3-(4-((4-((4-(2,4-difluorophenyl)piperazin-1-yl)methyl)benzyl)oxy)-1-oxoisoindolin-2-yl)piperidine-2,6-dione, reference compound]
[7]
  Adrenergic α1 % Inh. (@10 μM): 102%
